Measured values published in US20240252456A1, “ORAL COMPOSITION, SKIN COSMETIC AND HAIR COSMETIC” (MARUZEN PHARMACEUTICALS CO., LTD., priority 2021, published 2024).

Assays:
[1] = test system: Normal human neonatal epidermal keratinocytes (NHEK); assay: Laminin-332 production promotive action test; format: cell-based; conditions: 25 μmol/L, 48 hours, A/B×100 vs no sample
Method: Normal human neonatal epidermal keratinocytes (NHEK) were precultured in a 75 cm^2 flask using normal human epidermal keratinocyte growth medium (KGM), and the cells were collected by a trypsin treatment. The collected cells were diluted with a medium obtained by removing BPE from KGM (KGM-BPE) to a cell density of 1.0×10^5 cells/mL, then seeded with 500 μL per well in a 24-well plate, and cultured for 1 day.
After the culturing was completed, the medium was removed, and 500 μL of the test sample (Sample 1, see Table 11 below for final concentration) dissolved in KGM-BPE was added to each well, and culturing was performed for 48 hours. As a control, culturing was performed in the same manner using KGM-BPE to which no sample was added. After the culturing was completed, 100 μL of the medium supernatant was transferred to an ELISA plate and adsorbed to the plate at 37° C. for 2 hours, and then the amount of adsorbed laminin-332 was measured by ELISA method. From the obtained measurement results, the laminin-332 production promotion rate (%) was calculated using the following equation.
Laminin-332 production promotion rate (%)=A/B×100
Terms in the equation represent the following respective ones. • A: Laminin-332 amount with test sample addition • B: Laminin-332 without sample addition

CLDN4 mRNA = assay: Claudin-4 (CLDN4) mRNA expression promotive action test; format: cell-based, human; conditions: 100 μmol/L; NHEK, 24 hours, corrected with GAPDH
Method: Normal human neonatal epidermal keratinocytes (NHEK) were precultured using normal human epidermal keratinocyte growth medium (KGM), and the cells were collected by a trypsin treatment. The collected cells were diluted with KGM to a cell density of 15×10^4 cells/mL, then seeded with 2 mL portions in a 6-well plate (30×10^4 cells/well), and cultured overnight under conditions of 37° C. and 5% CO2. After culturing, the medium was replaced with normal human epidermal keratinocyte basal medium (KBM, the above KGM without addition of growth additives (hEGF, BPE, insulin, antibacterial agents, hydrocortisone)), and culturing was further performed for 24 hours.
After culturing for 24 hours, the medium was removed, and 2 mL of the test sample (Sample 1, see Table 20 below for final concentrations) dissolved in KBM was added to each well, and culturing was performed under conditions of 37° C. and 5% CO2 for 24 hours. As a control, culturing was performed in the same manner using KBM to which no sample was added. After culturing, the medium was removed, total RNA was extracted using ISOGEN II (available from NIPPON GENE CO., LTD.), each RNA amount was measured using a spectrophotometer, and the total RNA was prepared so as to be 150 ng/μL.
For CLDN4 and GAPDH as an internal standard, the expression levels of mRNA were measured using the above total RNA as a template. […]

AGEs = assay: Advanced glycation end product (AGEs) decomposition promotive action test; conditions: preformed AGEs, 37° C., 20 days
Method: In a 96-well type I collagen-coated plate (available from AGC Inc.), 100 μL of 0.2M D(−)-ribose solution prepared with PBS(−) buffer solution was added and statically placed at 37° C. for 2 weeks to form AGEs. In addition, the plate in which only the PBS(−) buffer solution was added was statically placed as a negative control in the same manner. After 2 weeks, 100 μL of the test sample (Sample 1, see Table 23 below for final concentration) prepared with PBS (−) buffer solution was added to each of the plates and statically further placed at 37° C. for 20 days. As a positive control, only PBS(−) buffer solution was statically placed in the same manner as substitute for the test sample, and as a negative control, only PBS(−) buffer solution was continued to be statically placed in the same manner. After 20 days, the amount of AGEs was measured by the ELISA method using an anti-AGEs antibody (available from TPANS GENIC INC.), and the AGEs decomposition promotive action was evaluated. From the obtained results, the AGEs decomposition promotion rate (%) was calculated using the following equation.
Terms in the equation represent the following respective ones. • A: Absorbance at wavelength 405 nm in negative control • B: Absorbance at wavelength 405 nm in positive control • C: Absorbance at wavelength 405 nm with test sample addition

[2] = test system: Mouse macrophage cells (RAW264.7); assay: Prostaglandin E2 (PGE2) production suppressive action test in mouse macrophages; format: cell-based; conditions: RAW264.7, LPS 1 μg/mL, 16 hours
Method: Mouse macrophage cells (RAW264.7) were cultured using Dulbecco's modified Eagle's medium (DMEM) containing 10% FBS, and then the cells were collected using a cell scraper. The collected cells were diluted with DMEM containing 10% FBS to a concentration of 2.0×10^5 cells/mL, then seeded with 100 μL per well in a 96-well plate, and cultured for 18 hours.
After the culturing was completed, the medium was replaced with a medium containing 500 μmol/L aspirin and cultured for 4 hours in order to acetylate and inactivate the already existing COX-1 and the small amount of COX-2 expressed. After that, the cells were washed three times with PBS(−) buffer solution, 100 μL of the test sample (Sample 1, see Table 29 below for final concentration) dissolved in DMEM containing DMSO at a final concentration of 0.5% and 10% FBS was added to each well, then 100 μL of lipopolysaccharide (LPS) (available from DIFCO, E. coli 0111; B4) dissolved at a final concentration of 1 μg/mL in DMEM containing 10% FBS, and the cells were cultured for 16 hours. As a control, culturing was performed in the same manner using DMEM containing DMSO at a final concentration of 0.5% and 10% FBS to which no sample was added. After the culturing was completed, the amount of prostaglandin E2 in the culture supernatant of each well was determined using PGE2 EIA Kit (available from Cayman Chemical). From the obtained results, the PGE2 production suppression rate (%) was calculated using the following equation.
Terms in the equation represent the following respective ones. • A: PGE2 amount with test sample addition and with LPS stimulation • B: PGE2 amount without sample addition and with LPS stimulation • C: PGE2 amount without sample addition and without LPS stimulation

O=C(O)CCc1ccc(O)c(O)c1 [Sample 1, 3,4-Dihydroxyhydrocinnamic acid]
Laminin-332 production promotion rate [1]: 142. 0%
CLDN4 mRNA expression promotion rate (CLDN4 mRNA): 489.7%
AGEs decomposition promotion rate (AGEs; 125 μmol/L): 37.7%
AGEs decomposition promotion rate (AGEs; 500 μmol/L): 39.9%
AGEs decomposition promotion rate (AGEs; 2000 μmol/L): 34.1%
PGE2 production suppression rate ([2]; 31.25 μmol/L): 17.9%
PGE2 production suppression rate ([2]; 125 μmol/L): 17.7%
PGE2 production suppression rate ([2]; 500 μmol/L): 41.3%
